Results as given in patent publication US20220162561A1, “COMPOSITION FOR PROMOTING SECRETION OF EXTRACELLULAR VESICLES” (priority 2019, published 2022).

Experiments:
Type in all cases: cell-based
[1] = system: mesenchymal stem cells derived from human adipose tissue; experiment: Test Example 3: promotion of secretion of extracellular vesicles, PS Capture exosome ELISA (anti-CD63); conditions: 24 hours, absorbance 450 nm minus 620 nm
Experimental: Mesenchymal stem cells derived from the human adipose tissue (#C-12977 manufactured by Takara Bio Inc.) were suspended in mesenchymal stem cell growth medium 2 (C-28009 manufactured by Takara Bio Inc.) so as to be 8×10^4 cells/1.8 mL, and seeded on a 6-well cell culture treatment plate (3516 manufactured by Corning Inc.). To the seeded mesenchymal stem cells derived from human adipose tissue was added 200 μL of the compound solution of each of Examples 1 to 8 diluted to 10-fold concentration with the mesenchymal stem cell growth medium 2, or mesenchymal stem cell growth medium alone (control), and after culturing for 24 hours, the culture solution was recovered. Subsequently, the recovered culture solution was centrifuged by 20,000×g at 4° C. for 60 minutes to prepare a culture solution from which cell fragments and Large Extracellular Vesicles were removed. For the detection of the extracellular vesicles, PS Capture (trademark) exosome ELISA kit (anti-mouse IgG POD) (#297-79201 manufactured by FUJIFILM Wako Pure Chemical Corporation) was used.
To Reaction/Washing Buffer (10×) diluted 10-fold with purified water was added 1/100 amount of Exosome Binding Enhancer (100×) to prepare a Reaction/Washing Buffer (1×). The culture solution prepared as mentioned above was diluted 5-fold with the Reaction/Washing Buffer (1×). After washing the Exosome Capture 96-well plate with 300 μL of the Reaction/Washing Buffer (1×) three times, 5-fold diluted each of the culture solution or mesenchymal stem cell growth medium alone in which no cell was cultured was added to each well, and the mixture was reacted at room temperature for 2 hours while shaking with a microplate shaker. After completion of the reaction, the reaction mixture was discarded, and after washing each well with 300 μL of the Reaction/Washing Buffer (1×) three times, 100 μL of Primary Antibody Anti-CD63 (×100) diluted 1,000-fold with the Reaction/Washing Buffer (1×) was added thereto, and the mixture was reacted at room temperature for 1 hour while shaking with a microplate shaker. After completion of the reaction, the reaction mixture was discarded, and after washing each well with 300 μL of the Reaction/Washing Buffer (1×) three times, 100 μL of the Secondary Antibody HRP-conjugated Anti-mouse IgG (100×) diluted 1,000-fold with the Reaction/Washing Buffer (1×) was added thereto, and the mixture was reacted at room temperature for 1 hour while shaking with a microplate shaker. After completion of the reaction, the reaction mixture was discarded, and after washing each well with 300 μL of the Reaction/Washing Buffer (1×) five times, 100 μL of TMB Solution was added, and after shaking for 1 minute with a microplate shaker, the mixture was reacted at room temperature for 30 minutes. After completion of the reaction, 100 μL of Stop Solution was added thereto, and after shaking with a microplate shaker for 5 seconds, the absorbance at 450 nm and 620 nm was measured with Enspire (manufactured by PerkinElmer), and the absorbance at 620 nm was subtracted from the absorbance at 450 nm for each well.

[2] = system: human bone marrow-derived mesenchymal stem cells; experiment: Test Example 7: promotion of secretion of extracellular vesicles, PS Capture exosome ELISA (anti-CD63); conditions: 24 hours, compound untreated group (control) set to 1
Experimental: (§1) Human bone marrow-derived mesenchymal stem cells or human umbilical cord matrix-derived mesenchymal stem cells (#C-12974, #C-12971 manufactured by Takara Bio Inc.) were suspended in mesenchymal stem cell growth medium 2 (C-28009 manufactured by Takara Bio Inc.) so as to be 8×10^4 cells/1.8 mL, and seeded on a 6-well cell culture treatment plate (3516 manufactured by Corning Inc.). To the seeded mesenchymal stem cells was added each 200 μL of the compounds of Examples 1 to 8 diluted to 10-fold concentration with the mesenchymal stem cell growth medium 2, and after culturing for 24 hours, the culture solution was recovered. Subsequently, the recovered culture solution was centrifuged under 20,000×g at 4° C. for 60 minutes to prepare a culture solution from which cell fragments and Large Extracellular Vesicles were removed. For the detection of extracellular vesicles, PS Capture (trademark) exosome ELISA kit (anti-mouse IgG POD) (#297-79201 manufactured by FUJIFILM Wako Pure Chemical Corporation) was used.
(§2) To Reaction/Washing Buffer (1×) prepared by diluting Reaction/Washing Buffer (10×) 10-fold with purified water was added 1/100 amount of Exosome Binding Enhancer (100×) to prepare a Reaction/Washing Buffer (1×). Each culture solution was diluted 5-fold with the Reaction/Washing Buffer (1×). After washing Exosome Capture 96-well plate with 300 μL of the Reaction/Washing Buffer (1×) three times, 5-fold-diluted each extracellular vesicle solution, or the mesenchymal stem cell growth medium 2 in which no cell was cultured (negative control) was added to each well, and the mixture was reacted at room temperature for 2 hours while shaking with a microplate shaker. After completion of the reaction, the reaction mixture was discarded, and after washing each well with 300 μL of the Reaction/Washing Buffer (1×) three times, 100 μL of Primary Antibody Anti-CD63 (×100) diluted to 1,000-fold with the Reaction/Washing Buffer (1×) was added thereto, and the mixture were reacted at room temperature for 1 hour while shaking with a microplate shaker. After completion of the reaction, the reaction mixture was discarded, and after washing each well with 300 μL of the Reaction/Washing Buffer (1×) three times, 100 μL of Secondary Antibody HRP-conjugated Anti-mouse IgG (100×) diluted to 1,000-fold with the Reaction/Washing Buffer (1×) was added thereto, and the mixture were reacted at room temperature for 1 hour while shaking with a microplate shaker. After completion of the reaction, the reaction mixture was discarded, and after washing each well with 300 μL of the Reaction/Washing Buffer (1×) five times, 100 μL of TMB Solution was added, and after shaking with a microplate shaker for 1 minutes, the mixture was reacted at room temperature for 30 minutes. After completion of the reaction, 100 μL of Stop Solution was added thereto, and after shaking with a microplate shaker for 5 seconds, the absorbance at 450 nm and 620 nm was measured with Enspire (manufactured by PerkinElmer). Based on the obtained measured values, a value subtracting the absorbance at 620 nm from the absorbance at 450 nm was calculated and a relative value when the compound untreated group (control) was set to 1 was calculated.

[3] = system: human umbilical cord matrix-derived mesenchymal stem cells; experiment: as above; conditions: 24 hours, compound untreated group (control) set to 1
Experimental: as §1, §2

Compound | Difference in absorbance ([1]; Table 1, 2 μM) | Difference in absorbance ([1]; Table 2, 2 μM) | Relative value of difference of absorbance ([2]; 2 μM) | Relative value of difference of absorbance ([3]; 2 μM) | Difference in absorbance ([1]; Table 1, 50 nM) | Relative value of difference of absorbance ([2]; 20 nM) | Relative value of difference of absorbance ([3]; 20 nM) | Difference in absorbance ([1]; Table 2, 50 nM)
CC(=O)O.Cc1cc2c(C(C)C)c(O)c(O)c(C=O)c2c(O)c1-c1c(C)cc2c(C(C)C)c(O)c(O)c(C=O)c2c1O (racemic) [Example 1, (±)-Gossypol Acetate] | 2.15 | 1.97 | 2.46 | 1.97 |  |  |  | 
CC(=O)O.Cc1cc2c(C(C)C)c(O)c(O)c(C=O)c2c(O)c1-c1c(C)cc2c(C(C)C)c(O)c(O)c(C=O)c2c1O [Example 2, (S)-Gossypol Acetate] |  | 1.79 | 2.14 | 1.57 |  |  |  | 
Cc1cc2c(C(C)C)c(O)c(O)cc2c(O)c1-c1c(C)cc2c(C(C)C)c(O)c(O)cc2c1O [Example 3, (+)-Apogossypol] |  | 1.33 | 1.53 | 1.31 |  |  |  | 
Cc1cc2c(C(C)C)c(O)c(O)c(C=O)c2c(O)c1-c1c(C)cc2c(C(C)C)c(O)c(O)c(C=O)c2c1O [Example 4, (R)-(−)-Gossypol] |  | 1.51 | 2.39 | 1.95 |  |  |  | 
COC1=CC(c2cc3ccccc3[nH]2)=N/C1=C\c1[nH]c(C)cc1C.CS(=O)(=O)O [Example 5, Obatoclax Mesylate] |  |  |  |  | 2.27 | 1.81 | 1.65 | 
CCCCCC1=C/C(=C\c2[nH]c(-c3ccc[nH]3)cc2OC)N=C1C.Cl [Example 6, Prodigiosin Hydrochloride] |  |  |  |  |  | 1.31 | 1.48 | 2.38
CCCCCCCCCCCc1ccc(/C=C2\N=C(c3ccc[nH]3)C=C2OC)[nH]1.Cl [Example 7, Undecylprodigiosin Hydrochloride] |  |  |  |  |  | 2.88 | 1.74 | 1.88
Cc1cc2c(C(=O)NC[C@H](C)c3ccccc3)c(O)c(O)cc2c(O)c1-c1c(C)cc2c(C(=O)NC[C@H](C)c3ccccc3)c(O)c(O)cc2c1O [Example 8, Sabutoclax] |  | 1.41 | 1.39 | 1.44 |  |  |  | 
